{"source": "patent US8993725B2", "about": "“Notch-based fusion proteins and uses thereof” (The Trustees of Columbia University in the City of New York, priority 2004, dated 2015)", "assay_type_in_all_cases": "cell-based, Human", "key": {"Ad-N1IC-transduced HUVEC": {"tested_on": "Ad-N1IC-transduced HUVEC", "test": "Notch-induced budding of Ad-N1IC-transduced HUVEC on gel", "conditions": "for Effect of receptor tyrosine kinase inhibitors on budding of Ad-N1IC-HUVEC: inhibitors at 1 μM, Ad-N1IC 40 MOI, complete medium", "description": "HUVEC were transduced with either Ad-LacZ or Ad-N1IC at 40 MOI. FIGS. 23A-23C show the effect of inhibitors for receptor tyrosine kinases on Notch-induced HUVEC budding. FIG. 23A is a photograph of budding of Ad-N1IC-transduced HUVEC treated with PD166866, ZD1893 at 1 μM and SU5416 at 0.5 μM. […] FIGS. 23F-G show promotion of Notch-induced HUVEC budding with PlGF stimulation. Ad-N1IC-transduced HUVEC were cultured on collagen gel with SFM, instead of complete medium, in the absence or presence of 50 ng/ml PlGF. […] FIGS. 23H-I show the effect of Flt-1 siRNA transfection on Flt1 expression. Ad-N1IC-transduced HUVEC were transfected with 200 pmol of either control (CT) or Flt-1 siRNA. […] Ad-N1IC-transduced HUVEC were transfected with either 100 or 200 pmol of siRNA and cultured on collagen gel for 2 days.\nEither Ad-LacZ or Ad-N1IC-HUVEC at a MOI of 40 pfu/cell were cultured on collagen gel for 5 days in the absence or presence of GM6001 at 50 μm.\nTo test whether Notch signaling is down-stream of VEGF, we evaluated three distinct inhibitors for receptor tyrosine kinases, including VEGFR on N1IC-induced HUVEC budding, because three growth factors existed in complete medium (FIG. 23A-C). […] Thus, we examined whether activation of Notch signaling affected Flt1/VNGFR1 expression in HUVEC, because SU5416 inhibits both Flt1 and Flk1 kinase activity (15). […] PlGF increased the number of Ad-N1IC-HUVEC buds by 150%, compared to the absence of PlGF (FIG. 23F). Moreover, PlGF increased HUVEC buds containing multiple filopodia by 250% (FIG. 23G)."}, "[1]": {"tested_on": "Notch signaling (CBF1 promoter activity) in HUVEC", "test": "VEGF-induced Notch signaling, CBF1 promoter / CSL-luciferase reporter activity in HUVEC", "conditions": "Ad-VEGF-transduced HUVEC, 20 MOI", "description": "To determine VEGF-induced Notch signaling, HUVEC which were infected with adenovirus were used. HUVEC plated 1-day prior in 6 well plates at 8.0×10^5 were infected with either Ad-LacZ as control or Ad-VEGF at indicated m.o.i. in the presence or absence of Ad-N1ECD/Fc. Two days after infection, infected HUVEC were re-seeded into 24-well plate at 1.5×10^5 cell in triplicate and cultured for 24 hours, and then transfected with 12.5 ng pRL-SV40 (Promega) and 137.5 ng pGA981-6 using Effectene transfection reagent (Qiagen). Cells were harvested either 1 or 2 days post-transfection and luciferase activity was determined by using the Dual-Luciferase® Reporter Assay System (Promega).\nOne can measure Notch signaling function by measuring transcriptional activity of CBF1 promoter, which is activated by binding of Notch-IC to CBF1. We measured CBF1 promoter activity in HUVEC which was infected with adenovirus encoding VECF-165 at different MOI (FIG. 6). Induction of CBF1 promoter was clearly detected in Ad-VEGF-infected HUVEC, compared to Ad-LacZ-infected cells in the MOI dependent manner. […] Thus VEGF induced Notch signaling activity."}, "HUVEC": {"tested_on": "HUVEC", "test": "HUVEC proliferation (CCK-8 kit)", "conditions": "SFM with 1% FBS, 4 days", "description": "These Figures show proliferation of Ad-VEGF165-transduced HUVEC. HUVEC were transduced with Ad-VEGF165 at the indicated dosages. Ad-LacZ was also co-infected to make the same total amount of adenovirus at a MOI of 40 pfu/cell. HUVEC were suspended in SFM supplemented with 1% FBS and then plated at 1×10^4 cells/well in 24-well multi-well plates with 0.4 ml of medium. After 4 days, cell numbers were determined using the CCK-8 kit and the results are indicated as the ratio of cell numbers determined to the number of control cells, which were transduced with Ad-GFP at a MOI of 40 pfu/cell. […] Ad-VEGF-transduced HUVEC were treated with SU5416 at the indicated dosages.\nThese Figures show the effect of alteration of Notch signaling on cell proliferation. The cells were transduced with the indicated adenoviruses. Ad-GFP was also co-infected to make the same total amount of adenovirus at a MOI of 60 pfu/cell. After 4 days, cell numbers were determined using the CCK-8 kit and results are indicated as the ratio of cell numbers determined to the number of control cells, which were transduced with AD-GFP at MOI of 60 pfu/cell. […] Transduced HUVEC were suspended in complete medium and then plated at 1×10^4 cells/well in 24-well multiwell plates with 0.4 ml of indicated medium (□: Ad-N1IC; ▪: Ad-N1ECDFc). […]"}}, "note": "“Also recorded” adds a separate entry of the source."}
{"molecule": "CNC(=O)[C@H](Cc1c[nH]c2ccccc12)NC(=O)[C@@H](CC(=O)NO)CC(C)C", "note": "[GM6001]", "values": [{"measurement": "Effect on budding of Ad-N1IC-HUVEC on collagen gel", "setting": "Ad-N1IC-transduced HUVEC; GM6001 at 50 μm, 5 days", "result": "inhibition of budding; also recorded: clearly decreased budding"}, {"measurement": "Effect on budding of Ad-N1IC-HUVEC on fibrin gel", "setting": "Ad-N1IC-transduced HUVEC; data not shown", "result": "clearly decreased budding"}]}
{"molecule": "COc1cc(OC)cc(-c2cc3cnc(N)nc3nc2NC(=O)NC(C)(C)C)c1", "note": "[PD166866]", "values": [{"measurement": "Effect of receptor tyrosine kinase inhibitors on budding of Ad-N1IC-HUVEC", "setting": "Ad-N1IC-transduced HUVEC", "result": "Neither PD166866 or ZD1893 affected budding"}]}
{"molecule": "Cc1cc(C)c(/C=C2\\C(=O)Nc3ccccc32)[nH]1", "note": "[SU5416, reference compound]", "values": [{"measurement": "Effect of compound treatment on VEGF-induced CSL-luciferase reporter activity", "setting": "[1]", "result": "decreased VEGF-induced CSL-luciferase reporter activity"}, {"measurement": "Effect of receptor tyrosine kinase inhibitors on budding of Ad-N1IC-HUVEC", "setting": "Ad-N1IC-transduced HUVEC", "result": "clearly inhibited"}, {"measurement": "Dose-dependency of effect on budding versus viability of Ad-N1IC-HUVEC", "setting": "Ad-N1IC-transduced HUVEC; lower concentrations", "result": "selectively inhibited budding of Ad-N1IC-HUVEC with less reduction of viability at lower concentrations"}, {"measurement": "Proliferation of Ad-VEGF-transduced HUVEC", "setting": "HUVEC", "result": "inhibitory effect"}]}
{"molecule": "COc1cc2ncnc(Nc3ccc(F)c(Cl)c3)c2cc1OCCCN1CCOCC1", "note": "[ZD1893]", "values": [{"measurement": "Effect of receptor tyrosine kinase inhibitors on budding of Ad-N1IC-HUVEC", "setting": "Ad-N1IC-transduced HUVEC", "result": "Neither PD166866 or ZD1893 affected budding"}]}
{"molecule": "PlGF: a selective ligand for Flt1 (protein, UniProt P49763 19-221, looked up) Placenta growth factor: LPAVPPQQWALSAGNGSSEVEVVPFQEVWGRSYCRALERLVDVVSEYPSEVEHMFSPSCVSLLRCTGCCGDENLHCVPVETANVTMQLLKIRSGDRPSYVELTFSQHVRCECRHSPGRQSPDMPGDFRADAPSFLPPRRSLPMLFRMEWGCALTGSQSAVWPSSPVPEEIPRMHPGRNGKKQQRKPLREKMKPERCGDAVPRR", "values": [{"measurement": "Increase of HUVEC buds containing multiple filopodia", "setting": "Ad-N1IC-transduced HUVEC; 50 ng/ml PlGF, SFM, collagen gel", "result": 250, "unit": "%"}, {"measurement": "Increase of the number of Ad-N1IC-HUVEC buds", "setting": "Ad-N1IC-transduced HUVEC; 50 ng/ml PlGF, SFM, collagen gel, compared to the absence of PlGF", "result": 150, "unit": "%"}]}
